Source: patent publication US20250282768A1 (Janssen Pharmaceutica NV, priority 2022, published 2025)

test system: p-IKKa levels in L363 (NIK translocated multiple myeloma) cells; experiment: Assay 2: Effect of compounds on p-IKKa levels in L363 (NIK translocated multiple myeloma) cells; assay type: cell-based; details: Homo sapiens, L-363, 6 h, read-out: Assay 2 IC50 (nM), p-IKKa (Ser 176/180) in BAFF stimulated L363 cells with MG132, 6 h; average if tested more than once
Outline: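 Read-out is p-IKKa Ser176/180 by AlphaLISA SureFire in lysates. Cells were BAFF-primed (250 ng/ml) overnight or left unstimulated, then exposed 6 h at 37 °C to compound with MG132 (10 μM), 0.3% DMSO. IC50 from sigmoidal curve fit, normalized between stimulated and unstimulated controls.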

Question: How did the IC50 turn out when `CN1CC[C@@](O)(c2cc(-c3cccc(-c4ccnc(Nc5cnn(C6CNC6)c5)n4)n3)no2)C1=O` [Example 215, (R)-3-(3-(6-(2-((1-(Azetidin-3-yl)-1H-pyrazol-4-yl)amino)pyrimidin-4-yl)pyridin-2-yl)isoxazol-5-yl)-3-hydroxy-1-methylpyrrolidin-2-one] was run?
Answer: The IC50 was greater than 500 nM.

Question: With `CN1CC[C@@](O)(c2cc(-c3cccc(-c4ccnc(Nc5ccn(CCF)n5)n4)n3)no2)C1=O` [Example 60, (R)-3-(3-(6-(2-((1-(2-Fluoroethyl)-1H-pyrazol-3-yl)amino)pyrimidin-4-yl)pyridin-2-yl)isoxazol-5-yl)-3-hydroxy-1-methylpyrrolidin-2-one] as the molecule, how does the IC50 read?
Answer: The IC50 was less than 50 nM.

Question: `[2H]c1cc(-c2cccc(-c3cc([C@]4(O)CCN(C)C4=O)on3)n2)nc(Nc2ccn(C)n2)n1` [Example 209, (R)-3-Hydroxy-1-methyl-3-(3-(6-(2-((1-methyl-1H-pyrazol-3-yl)amino)pyrimidin-4-yl-6-d)pyridin-2-yl)isoxazol-5-yl)pyrrolidin-2-one] was tested. Which IC50 did it give?
Answer: Its IC50 is less than 50 nM.

Question: How did the IC50 turn out when `C[C@@H](Nc1nccc(-c2cccc(-c3cc([C@]4(O)CCN(C)C4=O)on3)n2)n1)c1cnn(C)c1` (single isomer, unassigned) [Example 69] was run?
Answer: Its IC50 is less than 50 nM.

Question: How did the IC50 turn out when `Cc1n[nH]cc1Nc1nccc(-c2cccc(-c3cc([C@]4(O)CCN(C)C4=O)on3)n2)n1` [Example 36, (R)-3-Hydroxy-1-methyl-3-(3-(6-(2-((3-methyl-1H-pyrazol-4-yl)amino)pyrimidin-4-yl)pyridin-2-yl)isoxazol-5-yl)pyrrolidin-2-one] was run?
Answer: Its IC50 is less than 50 nM.

Question: How did the IC50 turn out when `CN1CC[C@@](O)(c2cc(-c3cccc(-c4ccnc(Nc5cnn(C6CC6)c5)n4)n3)no2)C1=O` [Example 124, (R)-3-(3-(6-(2-((1-Cyclopropyl-1H-pyrazol-4-yl)amino)pyrimidin-4-yl)pyridin-2-yl)isoxazol-5-yl)-3-hydroxy-1-methylpyrrolidin-2-one] was run?
Answer: The IC50 was less than 50 nM.

Question: `COc1cn([C@H]2C[C@H](O)C2)nc1Nc1nccc(-c2cccc(-c3cc([C@]4(O)CCN(C)C4=O)on3)n2)n1` [Example 231, (R)-3-Hydroxy-3-(3-(6-(2-((1-((1r,3r)-3-hydroxycyclobutyl)-4-methoxy-1H-pyrazol-3-yl)amino)pyrimidin-4-yl)pyridin-2-yl)isoxazol-5-yl)-1-methylpyrrolidin-2-one] was tested. Which IC50 did it give?
Answer: The IC50 was less than 50 nM.

Question: With `CN1CC[C@@](O)(c2cc(-c3cccc(-c4ccnc(Nc5ccn(CC6CCOCC6)n5)n4)n3)no2)C1=O` [Example 270, (R)-3-Hydroxy-1-methyl-3-(3-(6-(2-((1-((tetrahydro-2H-pyran-4-yl)methyl)-1H-pyrazol-3-yl)amino)pyrimidin-4-yl)pyridin-2-yl)isoxazol-5-yl)pyrrolidin-2-one] as the molecule, how does the IC50 read?
Answer: The IC50 was less than 50 nM.

Question: With `Cc1c(Nc2nccc(-c3cccc(-c4cc([C@]5(O)CCN(C)C5=O)on4)n3)n2)cnn1CC(C)(C)O` [Example 269, (R)-3-Hydroxy-3-(3-(6-(2-((1-(2-hydroxy-2-methylpropyl)-5-methyl-1H-pyrazol-4-yl)amino)pyrimidin-4-yl)pyridin-2-yl)isoxazol-5-yl)-1-methylpyrrolidin-2-one] as the molecule, how does the IC50 read?
Answer: The IC50 was less than 50 nM.

Question: `CO[C@@H]1CCC[C@H](Nc2nccc(-c3cccc(-c4cc([C@]5(O)CCN(C)C5=O)on4)n3)n2)C1` [Example 449, (R)-3-Hydroxy-3-(3-(6-(2-(((1S,3R)-3-methoxycyclohexyl)amino)pyrimidin-4-yl)pyridin-2-yl)isoxazol-5-yl)-1-methylpyrrolidin-2-one] was tested. Which IC50 did it give?
Answer: Its IC50 is 50 to 500 nM.

Question: Which IC50 does the source give for `Cc1cn[nH]c1Nc1nccc(-c2cccc(-c3cc([C@]4(O)CCN(C)C4=O)on3)n2)n1` [Example 34, (R)-3-Hydroxy-1-methyl-3-(3-(6-(2-((4-methyl-1H-pyrazol-5-yl)amino)pyrimidin-4-yl)pyridin-2-yl)isoxazol-5-yl)pyrrolidin-2-one] here?
Answer: The IC50 was 50 to 500 nM.

Question: With `CN1CC[C@@](O)(c2cc(-c3cc(C(F)(F)F)cc(-c4ccnc(Nc5cnn(C)c5)n4)n3)no2)C1=O` [Example 4, (R)-3-Hydroxy-1-methyl-3-(3-(6-(2-((1-methyl-1H-pyrazol-4-yl)amino)pyrimidin-4-yl)-4-(trifluoromethyl)pyridin-2-yl)isoxazol-5-yl)pyrrolidin-2-one] as the molecule, how does the IC50 read?
Answer: Its IC50 is less than 50 nM.
